Assays:
[1] = tested on: S. aureus ATCC 25923; assay: Agar well diffusion, zone of inhibition; assay type: cell-based, Staphylococcus aureus; settings: 8 mm wells, nanoparticles 100 μL (50 μg) per well, tetracycline 15 μg/wells, 24 hr at 37° C.
Experimental: (§1) For bacterial growth, a lawn of culture was prepared by spreading the […] of each test organism on nutrient agar plates. Plates were left standing for 10 minutes to let the culture get absorbed. Then 8 mm wells were punched into the nutrient agar plates for testing nanomaterial antimicrobial activity. Using a micropipette, 100 μL (50 μg) of the sample of nanoparticle suspension was poured onto each of five wells on all plates. After 24 hr incubation at 37° C.±2° C., the diameter of inhibition zone was measured.

[2] = tested on: E. coli; assay: Agar well diffusion, zone of inhibition; assay type: cell-based; settings: 8 mm wells, nanoparticles 100 μL (50 μg) per well, tetracycline 15 μg/wells, 24 hr at 37° C.
Experimental: as §1

## CN(C)[C@@H]1C(O)=C(C(N)=O)C(=O)[C@@]2(O)C(O)=C3C(=O)c4c(O)cccc4[C@@](C)(O)[C@H]3C[C@@H]12 [Tetracycline, tetracycline]
[1]
  Inhibitions zones diameters: 18 ± 0.2 mm
[2]
  Inhibitions zones diameters: 20 ± 0.2 mm
